Structures can show the parent of a compound that is named as a salt.

We go through 3 molecules from US9012518B2, “Compositions and methods of delivery of pharmacological agents” (Abraxis BioScience, LLC, priority 2002, dated 2015).

The conditions of data set [1]: cited from earlier work.
For data set [2] the following is noted: 22.5° C.; cited from earlier work.
The target of the next data set is immobilized albumin (Homo sapiens, UniProt P02768). As to the kind of experiment: Competition of added albumin with binding of fluorescent paclitaxel to immobilized albumin. Conditions: similar effect with binding to endothelial cells. The text has this:
Albumin was immobilized on a microtiter plate. […] Thus invention compositions having lower amounts of albumin are preferred.

immobilized albumin, sequence (P02768 25-609): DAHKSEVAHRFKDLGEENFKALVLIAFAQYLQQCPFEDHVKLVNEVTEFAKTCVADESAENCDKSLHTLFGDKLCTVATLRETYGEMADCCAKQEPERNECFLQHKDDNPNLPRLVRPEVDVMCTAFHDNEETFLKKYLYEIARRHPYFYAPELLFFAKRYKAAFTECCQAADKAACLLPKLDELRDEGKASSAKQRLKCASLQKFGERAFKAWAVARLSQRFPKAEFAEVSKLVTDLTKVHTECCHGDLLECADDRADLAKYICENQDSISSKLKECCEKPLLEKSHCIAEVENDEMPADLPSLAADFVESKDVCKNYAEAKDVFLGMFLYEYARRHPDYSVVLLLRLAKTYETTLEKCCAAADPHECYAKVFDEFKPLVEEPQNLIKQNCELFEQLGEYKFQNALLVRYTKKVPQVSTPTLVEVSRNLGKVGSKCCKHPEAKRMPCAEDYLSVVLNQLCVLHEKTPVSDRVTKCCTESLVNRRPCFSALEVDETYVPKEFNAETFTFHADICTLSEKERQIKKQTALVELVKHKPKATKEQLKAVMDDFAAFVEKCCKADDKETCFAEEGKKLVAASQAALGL

In the case of `CC(=O)N(O)CCCCCNC(=O)CCC(=O)N(O)CCCCCNC(=O)CCC(=O)N(O)CCCCCN` [Deferoxamine mesylate USP, N-[5-[3-[(5-aminopentyl)-hydroxycarbamoyl]-propion-amido]pentyl]-3[[5-((N-hydroxyacetamido)pentyl]-carbamoyl]propionohydroxamic acid monomethanesulfonate (salt)], the solubility in water result in data set [1] is listed as “freely soluble in water”.

As to `CC(C)c1cccc(C(C)C)c1O` [propofol, 2,6-diisopropylphenol], the “maximum solubility in water” value in data set [2] is 1.0 ± 0.02 µM.

Take albumin: on immobilized albumin, the “binding of fluorescent paclitaxel to immobilized albumin as added albumin increased” value is on record as “a corresponding decrease in binding”.
